{"source": "paper PMC5501099", "about": "(Malaria Journal, 2017)", "key": {"[1]": {"test_system": "Anopheles minimus", "experiment": "Ivermectin lethal concentration / survivorship, membrane blood feeding", "format": "in vivo", "conditions": "An. minimus", "experimental": "Powdered formulation of ivermectin compound was obtained from Sigma-Aldrich (St. Louis, USA). […] Control blood meals consisted of previously frozen DMSO diluted in PBS to match the ratio of DMSO and PBS fed to mosquitoes in the ivermectin-containing blood meals.\nAfter blood feeding via a membrane feeder, unfed mosquitoes were removed and discarded. Blood-fed mosquitoes were held in 3.5-l plastic containers with access to 10% sucrose and kept in an incubator at 25 ± 1 °C and 70 ± 10% relative humidity, on a 12 h light:12 h dark photoperiod. Mosquito survivorship was monitored for 7 days, every 24 h dead mosquitoes were removed and recorded, and on day 7 all remaining mosquitoes were frozen and counted as alive.\n(§1) A non-linear mixed effects model with probit analysis was used to calculate LC50, LC25 and LC5 values with Statistical Analysis Software (SAS Institute Inc, Cary, NC, USA) as described previously. Hazard ratios for mosquito mortality at day 7 post blood meal were calculated using Poisson regression analysis with STATA version 12.1 (StataCorp LLC, College Station, TX, USA). Oocyst and sporozoite prevalence (i.e. proportion of infected mosquitoes) was compared by Fishers Exact test. Oocyst intensity (i.e. number of oocysts per infected mosquito) was compared by the Mann–Whitney U test. To determine if P. vivax infection altered mosquito survivorship post-ivermectin ingestion survival data were analysed by the Mantel–Cox method. The Fishers Exact, Mann–Whitney U, and survival analysis data were analysed with Prism 7 (GraphPad Software Inc, San Diego, CA, USA)."}, "[2]": {"test_system": "An. dirus", "experiment": "Anticoagulant effects on mosquito survival with ivermectin LC25", "format": "in vivo, Anopheles dirus", "conditions": "sodium heparin vs CPDA, 7 days", "experimental": "Blood was drawn from a single donor and put directly into 10 ml sodium heparin tubes (NH) (158 USP units, BD Vacutainer, Franklin Lakes, NJ, USA) or 6ml CPDA Vacuette tubes (Greiner Bio-One, Kremsmϋnster, Austria) under protocol (Protocol WRAIR#2079)."}, "[3]": {"test_system": "Plasmodium vivax", "experiment": "Effect of ivermectin on Plasmodium vivax sporogony in Anopheles dirus", "format": "in vivo", "conditions": "An. dirus; for P. vivax oocyst prevalence reduced by: dissected day 7", "experimental": "Mosquitoes reared in Bangkok were transported to a field laboratory at the Mae Sot Malaria Medical Clinic in Mae Sot, Tak Province. Plasmodium vivax-infected blood was collected from malaria-infected patients reporting to malaria clinics operated by the Thailand Ministry of Public Health in Tak Province (protocol WRAIR#1949A). Patient plasma was removed and replaced by centrifuging blood samples at 3000 rpm for 5 min, plasma removed and blood washed with RPMI twice, and malaria-naïve AB+ serum was added at a 50:50 ratio [30]. One millilitre of blood was fed to each group of 100 mosquitoes in 0.5-l cardboard containers and unfed mosquitoes were removed. Mosquitoes were maintained on 10% sucrose ad libitum at the Mae Sot field insectary (25 ± 1 °C and 70 ± 10% relative humidity, light 12 h:12 h dark photoperiod). Once infected with P. vivax, blood-fed mosquitoes were securely transported back to Bangkok and maintained in a separate insectary (25 ± 1 °C and 70 ± 10% relative humidity, light 12 h:12 h dark photoperiod).\nUnfed mosquitoes were removed from the feeding containers after each blood meal. Mosquitoes from the DPI 0 and DPI −3 feeding schedules were dissected 7 days post parasite ingestion to enumerate oocysts. Midguts were dissected with minuten pins into saline on a microscope slide and stained with 0.4% mercurochrome and viewed at 40× magnification with a compound microscope to determine oocyst prevalence and intensity. Approximately 25 mosquitoes were dissected from each control and treatment group at each dissection time point. Dissectors were blinded to treatment groups. Due to lack of initial mosquito blood feeding and mosquitoes lost to experimental mortality and oocyst dissections at day 7 post parasite feeding, not enough mosquitoes remained at day 14 post parasite feeding to determine sporozoite prevalence for the DPI −3 and 0 experiments. Mosquitoes from the DPI 6 and 9 experiments were dissected 14 days post parasite ingestion to determine sporozoite prevalence. Salivary glands were dissected with minuten pins into saline on a microscope slide and viewed at 40× magnification to determine sporozoite prevalence.\nas §1"}, "[4]": {"conditions": "cited from earlier work"}, "[5]": {"experiment": "Population pharmacokinetic model of ivermectin in healthy Thai volunteers", "format": "in vivo, human", "conditions": "single oral 200 µg/kg", "experimental": "The first-order conditional estimation method with interaction was used throughout model development. Model diagnostics and automation were performed using Xpose version 4.0 [25], Pirana and Pearl-speaks-NONMEM (PsN; version 3.6.0). The objective function value (OFV; calculated by NONMEM as proportional to −2 × loglikelihood of data) was used to discriminate between hierarchical models. A difference between two models (ΔOFV) of >3.84 and >10.83 were considered statistically significant at a P value of <0.05 and <0.001, respectively. Models were assessed using standard goodness-of-fit and simulation-based diagnostics (i.e. numerical and visual predictive checks using 2000 simulations). The robustness of the final model was evaluated by bootstrapping (n = 1000).\nDifferent disposition models (one-, two- and three-compartment models) and absorption models (first-order and transit models) were evaluated to describe the pharmacokinetic structural model of ivermectin. Pharmacokinetic parameters were assumed to be log-normally distributed and inter-individual variability was implemented as exponential functions. […] The influence of other individual covariates including gender, age, haemoglobin, haematocrit, total bilirubin, direct bilirubin, alkaline phosphatase, aspartate aminotransferase, and alanine aminotransferase, serum creatinine, blood urea nitrogen, and albumin level were investigated using a stepwise covariate approach (P value <0.05 and <0.001 for forward and backward addition and deletion, respectively).\nThere were no observations reported to be below the lower limit of quantification. […] A flexible transit absorption model (n = 2) improved the model fit substantially compared to the first-order absorption (∆OFV = −378). […] Implementing body weight as a covariate in the model also allowed for translation and interpretation to other study populations."}, "[6]": {"conditions": "ivermectin LC5 at DPI −3, not significant"}, "[7]": {"conditions": "23 healthy Thai volunteers, plasma data of trial [24]"}, "[8]": {"conditions": "post hoc estimate, median (interquartile range)"}}}
{"substance": "ivermectin", "values": [{"measurement": "LC5", "setting": "[1]; 7 days post blood meal", "result": 6.7, "unit": "ng/mL"}, {"measurement": "LC25", "setting": "[1]; 7 days post blood meal", "result": 0.0113, "unit": "µg/mL"}, {"measurement": "LC50", "setting": "[1]; 7 days post blood meal", "result": 0.0163, "unit": "µg/mL"}, {"measurement": "IRR (Incidence Rate Ratio of mortality at day 7, treatment group divided by control group)", "setting": "[1]; ivermectin imbibed 1 ng/ml", "result": 2.7}, {"measurement": "IRR (Incidence Rate Ratio of mortality at day 7, treatment group divided by control group)", "setting": "[1]; ivermectin imbibed 2 ng/ml", "result": 0.5}, {"measurement": "IRR (Incidence Rate Ratio of mortality at day 7, treatment group divided by control group)", "setting": "[1]; ivermectin imbibed 3 ng/ml", "result": 1.8}, {"measurement": "IRR (Incidence Rate Ratio of mortality at day 7, treatment group divided by control group)", "setting": "[1]; ivermectin imbibed 4 ng/ml", "result": 2.9}, {"measurement": "IRR (Incidence Rate Ratio of mortality at day 7, treatment group divided by control group)", "setting": "[1]; ivermectin imbibed 5 ng/ml", "result": 3.6}, {"measurement": "IRR (Incidence Rate Ratio of mortality at day 7, treatment group divided by control group)", "setting": "[1]; ivermectin imbibed 6 ng/ml", "result": 1.3}, {"measurement": "IRR (Incidence Rate Ratio of mortality at day 7, treatment group divided by control group)", "setting": "[1]; ivermectin imbibed 8 ng/ml", "result": 2.8}, {"measurement": "IRR (Incidence Rate Ratio of mortality at day 7, treatment group divided by control group)", "setting": "[1]; ivermectin imbibed 10 ng/ml", "result": 3.8}, {"measurement": "IRR (Incidence Rate Ratio of mortality at day 7, treatment group divided by control group)", "setting": "[1]; ivermectin imbibed 12 ng/ml", "result": 4.6}, {"measurement": "IRR (Incidence Rate Ratio of mortality at day 7, treatment group divided by control group)", "setting": "[1]; ivermectin imbibed 15 ng/ml", "result": 5.8}, {"measurement": "IRR (Incidence Rate Ratio of mortality at day 7, treatment group divided by control group)", "setting": "[1]; ivermectin imbibed 18 ng/ml", "result": 7.0}, {"measurement": "IRR (Incidence Rate Ratio of mortality at day 7, treatment group divided by control group)", "setting": "[1]; ivermectin imbibed 20 ng/ml", "result": 9.5}, {"measurement": "IRR (Incidence Rate Ratio of mortality at day 7, treatment group divided by control group)", "setting": "[1]; ivermectin imbibed 25 ng/ml", "result": 9.0}, {"measurement": "IRR (Incidence Rate Ratio of mortality at day 7, treatment group divided by control group)", "setting": "[1]; ivermectin imbibed 28 ng/ml", "result": 10.5}, {"measurement": "IRR (Incidence Rate Ratio of mortality at day 7, treatment group divided by control group)", "setting": "[1]; ivermectin imbibed 30 ng/ml", "result": 11.5}, {"measurement": "Effect of anticoagulant type on survivorship of An. dirus that ingested ivermectin", "setting": "[2]", "result": "did not alter survivorship"}, {"measurement": "P. vivax oocyst prevalence reduced by", "setting": "[3]; ivermectin LC5 (22.1 ng/ml) co-ingested at DPI 0", "result": 33.6, "unit": "%"}, {"measurement": "P. vivax mean oocyst intensity reduced by", "setting": "[3]; ivermectin LC5 at DPI 0", "result": 24.7, "unit": "%"}, {"measurement": "P. vivax oocyst intensity increased by", "setting": "[3]; [6]", "result": 24.2, "unit": "%"}, {"measurement": "P. vivax oocyst prevalence decreased by", "setting": "[3]; [6]", "result": 3.9, "unit": "%"}, {"measurement": "P. vivax oocyst prevalence reduced by", "setting": "[3]; ivermectin LC25 (38.1 ng/ml) co-ingested at DPI 0", "result": 44.7, "unit": "%"}, {"measurement": "P. vivax mean oocyst intensity reduced by", "setting": "[3]; ivermectin LC25 at DPI 0", "result": 51.2, "unit": "%"}, {"measurement": "P. vivax sporozoite prevalence decreased by", "setting": "[3]; ivermectin LC25 at DPI 6, dissected day 14, not significant", "result": 4.5, "unit": "%"}, {"measurement": "P. vivax sporozoite prevalence increased by", "setting": "[3]; ivermectin LC25 at DPI 9, dissected day 14, not significant", "result": 4.4, "unit": "%"}, {"measurement": "Safety of repeated administration", "setting": "[4]; 400 µg/kg every two weeks for 12 weeks, adults, Sri Lanka and Brazil", "result": "safe"}, {"measurement": "Safety and tolerability", "setting": "[4]; doses up to 2000 µg/kg, healthy volunteers", "result": "safe and well tolerated"}, {"measurement": "MTT mean transit absorption time, population estimate (%RSE)", "setting": "[5]; [7]", "result": "0.496 (17.1) h"}, {"measurement": "ka absorption rate constant, population estimate (%RSE)", "setting": "[5]; [7]", "result": "0.317 (3.97) h^−1"}, {"measurement": "IIV of CL/F (%RSE)", "setting": "[5]; healthy Thai volunteers", "result": "23.1 (25.2) %CV"}, {"measurement": "IIV of F relative bioavailability (%RSE)", "setting": "[5]; healthy Thai volunteers", "result": "10.7 (42.9) %CV"}, {"measurement": "IIV of MTT (%RSE)", "setting": "[5]; healthy Thai volunteers", "result": "56.1 (36.2) %CV"}, {"measurement": "IIV of VP/F (%RSE)", "setting": "[5]; healthy Thai volunteers", "result": "22.8 (36.0) %CV"}, {"measurement": "CL/F apparent oral elimination clearance, population estimate (%RSE)", "setting": "[5]; healthy Thai volunteers, allometric scaling centred on 55 kg", "result": "9.02 (5.49) l/h"}, {"measurement": "Q/F apparent inter-compartmental clearance, population estimate (%RSE)", "setting": "[5]; healthy Thai volunteers, centred on 55 kg", "result": "16.2 (5.34) l/h"}, {"measurement": "AUC0–168", "setting": "[5]; [8]", "result": "1331 (919–1406) ng × h/ml"}, {"measurement": "Cmax", "setting": "[5]; [8]", "result": "45.7 (40.3–46.9) ng/ml"}, {"measurement": "Terminal half-life", "setting": "[5]; [8]", "result": "25.0 (23.7–29.5) h"}, {"measurement": "Tmax", "setting": "[5]; [8]", "result": "4.76 (4.67–5.04) h"}]}
